From PubChem BioAssay (NCI)
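Where inhibition never reached the appropriate level, the endpoint shown equals the highest concentration tested. Otherwise, values were interpolated linearly from a five-concentration, 48-hour dose response in 96-well plates. At the GI50, growth is halved. TGI: total growth inhibition.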

Assays:
Assay in all cases: NCI anticancer screen, dose series, 48 h
DLD-1 colon = tested on: DLD-1 colon
SNB-78 CNS = tested on: SNB-78 CNS
KM20L2 colon = tested on: KM20L2 colon
DMS 273 small cell lung = tested on: DMS 273 small cell lung
DMS 114 small cell lung = tested on: DMS 114 small cell lung
HOP-18 NSCLC = tested on: HOP-18 NSCLC
MDA-N = tested on: MDA-N
XF 498 CNS = tested on: XF 498 CNS
RXF-631 renal = tested on: RXF-631 renal

| SMILES | TGI (DLD-1 colon) [µM] | TGI (SNB-78 CNS) [µM] | TGI (KM20L2 colon) [µM] | TGI (DMS 273 small cell lung) [µM] | TGI (DMS 114 small cell lung) [µM] | TGI (HOP-18 NSCLC) [µM] | TGI (MDA-N) [µM] | TGI (XF 498 CNS) [µM] | TGI (RXF-631 renal) [µM] | other results |
| --- | --- | --- | --- | --- | --- | --- | --- | --- | --- | --- |
| O=C1NC(=O)c2c1n(Cc1ccccc1)c(=O)n2Cc1ccccc1 | > 100 | > 100 | > 100 | > 100 | > 100 | > 100 |  |  |  |  |
| O=C1Oc2ccccc2C(=O)/C1=C1/C=C(c2ccccc2)SS1 |  |  |  |  |  |  | > 100 |  |  |  |
| CC1=N/C(=C\c2ccc(/C=C3/N=C(C)OC3=O)cc2)C(=O)O1 | > 100 | > 100 | > 100 | > 100 | > 100 | > 100 |  | > 100 |  |  |
| CCc1cccc(C)c1NC(=O)CCc1nc(=S)[nH][nH]1 | > 100 | > 100 | > 100 |  | > 100 | > 100 |  | > 100 |  |  |
| COC1N(C2CC(O)C(CO)O2)C(=O)NC(=O)C1(F)Br (stereo not drawn) | 50 | > 50 | 50 | 50 | 50 | > 50 | > 100 | 50 | 50 |  |
| O=c1c2ccccc2sc2c(CO)ccc(NCCN3CCCCC3)c12 |  |  |  |  |  |  | 11.6 |  |  |  |
| N#C/C(=C\c1cc(OCc2ccccc2)c(OCc2ccccc2)cn1)C(N)=O | > 100 | > 100 | > 100 |  | > 100 |  |  | > 100 | > 100 |  |
| O=C1[C@@H]2C(c3c(Cl)cccc3Cl)=NO[C@@H]2C(=O)N1c1ccc(Cc2ccc(N3C(=O)[C@H]4C(c5c(Cl)cccc5Cl)=NO[C@H]4C3=O)cc2)cc1 | > 100 | > 100 | > 100 | > 100 | > 100 | > 100 |  | > 100 |  |  |
| Cc1nc(N)nc(CCC(=O)Nc2cccc(C(F)(F)F)c2)c1-c1ccc(Cl)cc1 | > 100 | > 100 | > 100 | > 100 | > 100 | > 100 |  | > 100 | > 100 |  |
| CCc1ccccc1NC(=O)c1cccc([N+](=O)[O-])c1O | > 100 | 94.2 | 93.3 | 86.2 | 51.5 | > 100 |  | 57.9 | > 100 |  |
| CC(Br)C(=O)NC(CO)C(=O)O (stereo not drawn) |  |  |  |  |  |  | > 100 |  |  |  |
| Nc1ncc(Cc2ccc3c(c2)OCO3)c(N)n1 |  |  |  |  |  |  | > 100 |  |  |  |
| O=[N+]([O-])c1ccc(Cl)c2c([N+](=O)[O-])cccc12 |  |  |  |  |  |  | 4.29 |  |  |  |
| CCN(C)c1nc(N(C)CC)c2nc(N(C)CC)nc(N(C)CC)c2n1 |  |  |  |  |  |  | > 100 |  |  |  |
| COC(=O)C1C(C(=O)OC)C2C(=O)C3C(C(=O)OC)C(C(=O)OC)C3C(=O)C12 (stereo not drawn) |  | > 100 | > 100 | > 100 |  | > 100 |  | > 100 | > 100 |  |
| N#CC(C(=O)C(=O)Nc1c(Cl)cccc1Cl)c1ccccc1 (stereo not drawn) | > 100 | > 100 |  | > 100 | > 100 | > 100 |  | > 100 | > 100 | GI50 (DLD-1 colon): > 100 µM; GI50 (SNB-78 CNS): > 100 µM; GI50 (RXF-631 renal): > 100 µM; GI50 (DMS 273 small cell lung): > 100 µM; GI50 (DMS 114 small cell lung): > 100 µM; GI50 (HOP-18 NSCLC): > 100 µM |

| SMILES | TGI (DLD-1 colon) [µM] | TGI (SNB-78 CNS) [µM] | TGI (KM20L2 colon) [µM] | TGI (DMS 273 small cell lung) [µM] | TGI (DMS 114 small cell lung) [µM] | TGI (HOP-18 NSCLC) [µM] | TGI (MDA-N) [µM] | TGI (XF 498 CNS) [µM] | TGI (RXF-631 renal) [µM] | other results |
| --- | --- | --- | --- | --- | --- | --- | --- | --- | --- | --- |
| COc1cc(Nc2cnc3ccc(C(F)(F)F)cc3n2)cc(OC)c1OC |  | > 100 | 22.5 | > 100 |  | > 100 |  |  |  |  |
| O=[N+]([O-])c1ccccc1C1SCc2nc3ccccc3n21 (stereo not drawn) | > 100 |  |  | > 100 | > 100 | > 100 |  | > 100 | > 100 |  |
| Cc1ccc2c(c1)CN1c3ccc(C)cc3CN2C1c1ccccc1O | > 100 | > 100 |  | > 100 | > 100 |  |  |  |  |  |
| COC(=O)/C=C(/C(=O)OC)C1(C)c2cc(C(=O)OC)c(C(=O)OC)c(N)c2C(=N)N1c1ccccc1 (stereo not drawn) | 29.4 |  | 34.8 | > 100 | 31.6 | 62 |  | 28.4 | 86.9 |  |
| OCc1cc2c(cn1)[nH]c1ccc(NCc3ccccc3)cc12 | > 100 |  | 55.6 | 48 | 51.1 |  |  | 59.2 | > 100 |  |
| O=C(NC1C(=O)NNC1c1cccc([N+](=O)[O-])c1)c1ccccc1 (stereo not drawn) | > 100 | > 100 | > 100 |  | > 100 | > 100 |  | > 100 | > 100 |  |
| O=C1/C(=C\c2ccccc2)CN(C(=O)CCN2CCCCC2)C/C1=C/c1ccccc1 | 3.12 | 10.6 | 2.97 | 3.1 | 3.05 | 7.37 | 5.4 | 3.84 | 4.69 |  |
| COC(=O)C1C(=O)O[C@@H](c2ccc3c(c2)OCO3)C1C(=O)OC (mixture of isomers) | > 100 | > 100 | > 100 | > 100 | > 100 |  |  |  | > 100 |  |
| NNC(=O)C(=O)N/N=C1/CCCC1C(=O)CCC(=O)Nc1ccc(Cl)cc1 (stereo not drawn) | > 100 | > 100 | > 100 | > 100 | > 100 | > 100 |  | > 100 | > 100 |  |
| CCOC(=O)c1nc(C)oc1C(F)(F)F | > 100 | > 100 | > 100 |  | > 100 |  |  | > 100 |  |  |
| COc1nc2c(c(O)c(C)c(=O)n2OC2OCC(OC(C)=O)C(OC(C)=O)C2OC(C)=O)c(=O)n1C (stereo not drawn) | > 100 | > 100 | > 100 | > 100 | > 100 |  |  | > 100 |  |  |
| CCn1c2c(c3ccccc3c1=O)C(=O)c1ccccc1-2 |  |  |  |  |  |  | > 100 |  |  |  |
| COc1cc(CNc2nc3cc(N)cc(N)c3nc2-c2ccccc2)cc(OC)c1 |  |  |  |  |  |  | 5.21 |  |  | GI50 (MDA-N): 2.33 µM |
| COCC([C@@H](O)C(O)C(=O)NCC[C@@H](C)c1nc(/C=C/CC2OC3(C[C@H](O)C2C)OC(C(C[C@H](O)C(C)[C@H](O)C(C)/C=C(C)/C(C)=C/C=C/C(C)=C/C#N)OC)[C@@H](OP(=O)(O)O)C3(C)C)co1)N(C)C (stereo partly drawn) |  |  |  |  |  |  | 0.000358 |  |  |  |
| CC1=C(C(=O)Nc2ccccc2)C(c2ccc(N(C)C)cc2)C(C(=O)Nc2ccccc2)=C(C)N1 | > 100 | > 100 | 7.26 | > 31.8 | 6.57 | > 100 | > 100 | > 100 |  |  |
| C[C@]12Cc3cn[nH]c3C(=O)C1CC[C@@H]1C2CC[C@@]2(C)C1CC[C@@H]2O (stereo partly drawn) |  | > 100 | > 100 | > 100 | > 100 | > 100 |  | > 100 |  |  |
